Test results: patent publication US10000473B2, “Indazole derivatives useful as glucagon receptor antagonists” (Janssen Pharmaceutica NV, priority 2016, dated 2018)
Values joined by “and” are separate entries in the source; they are usually repeats but may differ in a detail not shown here. Equal entries are not always repeated.

Experiments:
[1] = system: GCG-mediated increases in blood glucose; assay: Glucagon challenge in vivo assay measuring blood glucose (normal dog glucagon challenge test); details: 10 mg/kg oral gavage, fasted male beagle dogs
Procedure: Glucagon Challenge In Vivo Assay Measuring Blood Glucose
The efficacy of a glucagon receptor antagonist was evaluated using a normal dog glucagon challenge test. Male beagle dogs were overnight fasted prior to the study. Test compound (at 3 mg/kg and 10 mg/kg for Compound #196 and at 10 mg/kg for Compounds #180, #248 and #253) or vehicle (0.5% hydroxypropyl methylcellulose) was dosed via oral gavage. Ninety minutes later, the dogs (1.5 years old, ˜9 Kg) were submitted to a glucagon challenge test by a single intramuscular injection of glucagon (Glucagon, rDNA origin, Eli Lilly, Indianapolis, Ind.) at dose of 5 μg/kg. Blood glucose levels were determined at times −10 min, 0 min (on challenge), 10 min, 20 min, 30 min, and 60 min after glucagon injection.

human GCGR = biological target: T1, human GCGR (Homo sapiens, UniProt P47871); assay: Cellular functional assay, cAMP readout (glucagon-stimulated cAMP, LANCE TR-FRET); assay type: cell-based; details: HEK293 cells stably expressing full-length human GCGR; glucagon 100 pM; IC50 converted to Ki; read-out: Inhibition of cAMP Ki
T1 construct: expressed in transfected cells; host or cells: HEK293 (hGluc-1HEK), pcDNA3.1, G418 selection
T1 sequence (P47871 26-477): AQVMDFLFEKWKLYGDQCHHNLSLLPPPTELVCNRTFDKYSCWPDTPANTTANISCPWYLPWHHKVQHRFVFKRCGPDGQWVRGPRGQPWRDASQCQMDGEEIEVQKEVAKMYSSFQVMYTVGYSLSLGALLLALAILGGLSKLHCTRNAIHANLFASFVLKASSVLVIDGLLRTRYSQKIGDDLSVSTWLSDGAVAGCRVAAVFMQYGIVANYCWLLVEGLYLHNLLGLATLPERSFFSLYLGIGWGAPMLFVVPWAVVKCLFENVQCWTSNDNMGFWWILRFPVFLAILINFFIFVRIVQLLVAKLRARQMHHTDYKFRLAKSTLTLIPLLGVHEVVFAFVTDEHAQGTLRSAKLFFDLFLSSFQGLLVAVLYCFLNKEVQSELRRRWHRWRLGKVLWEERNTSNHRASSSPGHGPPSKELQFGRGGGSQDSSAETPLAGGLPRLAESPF

| SMILES | Ki (human GCGR) | other results |
| --- | --- | --- |
| Cc1c(-c2ccc(C(F)(F)F)cc2Cl)ccc2nn([C@@H](CC(C)C)c3ccc(C(=O)NCCC(=O)O)cc3)cc12 [Compound #180, 3-[[4-[(1S)-1-[5-[2-Chloro-4-(trifluoromethyl)phenyl]-4-methyl-indazol-2-yl]-3-methyl-butyl]benzoyl]amino]propanoic acid] | 25 nM (2×) and 20 nM | blood glucose levels during glucagon challenge compared with vehicle treated group ([1]; glucagon 5 μg/kg intramuscular): markedly reduced blood glucose levels; duration of blood glucose reducing effect after glucagon injection ([1]; glucagon 5 μg/kg intramuscular): more than 60 min; inhibition of GCG-mediated increases in blood glucose vs vehicle ([1]; glucagon 5 μg/kg intramuscular 90 min after dosing): 28.9% |
| O=C(O)CCNC(=O)c1ccc(C(CCC(F)(F)C(F)(F)F)n2ncc3cc(-c4ccc(C(F)(F)F)cc4)ccc32)cc1 (centres unmarked) [compound 100] | 550 nM |  |
| Cc1cc(-c2ccc(C(C)(C)C)cc2)cc2cn(C(CC(C)C)c3ccc(C(=O)NCCC(=O)O)nc3)nc12 (centres unmarked) [compound 108] | 1340 nM |  |
| CC(C)CC(c1ccc(C(=O)NCCC(=O)O)cc1)n1ncc2cc(-c3ccc4cnn(C)c4c3)ccc21 (centres unmarked) [compound 116] | 750 nM |  |
| CC(C)CC(c1ccc(C(=O)NCCC(=O)O)cc1)n1cc2cc(-c3cnc4ccccc4c3)ccc2n1 (centres unmarked) [compound 117] | 1000 nM |  |
| CC(C)CC(c1ccc(C(=O)NCCC(=O)O)nc1)n1ncc2cc(-c3cc(Cl)cc(Cl)c3)ccc21 (centres unmarked) [compound 119] | > 2600 nM |  |
| CC(C)CC(c1ccc(C(=O)NCCC(=O)O)cc1)n1cc2cc(-c3cc4ccccc4s3)ccc2n1 (centres unmarked) [compound 120] | 58 nM |  |
| CC(C)CC(c1ccc(C(=O)NCCC(=O)O)cc1)n1cc2cc(-c3ccc4ncccc4c3)ccc2n1 (centres unmarked) [compound 121] | 700 nM |  |
| CC(C)CCn1cc(-c2ccc3c(cnn3C(CC(C)C)c3ccc(C(=O)NCCC(=O)O)cc3)c2)cn1 (centres unmarked) [compound 123] | > 5200 nM |  |
| CC(C)CC(c1ccc(C(=O)NCCC(=O)O)cc1)n1ncc2cc(-c3cc4ccc(F)cc4s3)ccc21 (centres unmarked) [compound 126] | 280 nM |  |
| CCCCCCC(c1ccc(C(=O)NCCC(=O)O)cc1)n1ncc2cc(-c3ccc(C(C)(C)C)cc3)ccc21 (centres unmarked) [compound 128] | 199 nM |  |
| CC(C)CC(c1ccc(C(=O)NCCC(=O)O)cc1)n1cc2cc(-c3cc4cc(F)ccc4s3)ccc2n1 (centres unmarked) [compound 129] | 88 nM |  |
| O=C(O)CCNC(=O)c1ccc(C(CC2CCCCC2)n2ncc3cc(-c4ccc(C(F)(F)F)cc4)ccc32)cc1 (centres unmarked) [compound 131] | 310 nM |  |
| COc1ccc2sc(-c3ccc4c(cnn4C(CC(C)C)c4ccc(C(=O)NCCC(=O)O)cc4)c3)cc2c1 (centres unmarked) [compound 132] | 230 nM |  |
| O=C(O)CCNC(=O)c1ccc(C(CCC2CCCCC2)n2cc3cc(-c4ccc(C(F)(F)F)cc4)ccc3n2)cc1 (centres unmarked) [compound 133] | 92 nM |  |
| O=C(O)CCNC(=O)c1ccc(C(C2CCCCC2)n2cc3cc(-c4ccc(C(F)(F)F)cc4)ccc3n2)cc1 (centres unmarked) [compound 136] | 135 nM |  |
| O=C(O)CCNC(=O)c1ccc(C(CC2CC2)n2cc3cc(-c4ccc(C(F)(F)F)cc4)ccc3n2)cc1 (centres unmarked) [compound 139] | 200 nM |  |
| COc1c(-c2ccc(C(F)(F)F)cc2C)ccc2c1cnn2[C@H](CC(C)C)c1ccc(C(=O)NCCC(=O)O)cc1 [compound 145, (R)-3-(4-(1-(4-Methoxy-5-(2-methyl-4-(trifluoromethyl)phenyl)-1H-indazol-1-yl)-3-methylbutyl)benzamido)propanoic acid] | 1850 nM |  |
| Cc1cc(Cl)ccc1-c1ccc2c(cnn2C(CC(C)(C)C)c2ccc(C(=O)NCCC(=O)O)cc2)c1 (centres unmarked) [compound 151] | 90 nM |  |
| Cc1cc(Cl)ccc1-c1ccc2nn(C(CC3CCCCC3)c3ccc(C(=O)NCCC(=O)O)cc3)cc2c1 (centres unmarked) [compound 153] | 42 nM |  |

| SMILES | Ki (human GCGR) | other results |
| --- | --- | --- |
| Cc1cc(Cl)ccc1-c1ccc2c(cnn2C(CCC2CCCCC2)c2ccc(C(=O)NCCC(=O)O)cc2)c1 (centres unmarked) [compound 157] | 250 nM |  |
| CCCCCCC(c1ccc(C(=O)NCCC(=O)O)cc1)n1ncc2cc(-c3ccc(C(F)(F)F)cc3)ccc21 (centres unmarked) [compound 159] | 155 nM |  |
| CC(C)CC(c1ccc(C(=O)NCCC(=O)O)cc1)n1ncc2cc(-c3cnn(C)c3)ccc21 (centres unmarked) [compound 164] | > 5200 nM |  |
| CC(C)CC(c1ccc(C(=O)NCCC(=O)O)cc1)n1ncc2cc(-c3cccc4ccccc34)ccc21 (centres unmarked) [compound 165] | 1350 nM |  |
| CCCCCC(c1ccc(C(=O)NCCC(=O)O)cc1)n1cc2cc(-c3ccc(C(C)(C)C)cc3)ccc2n1 (centres unmarked) [compound 170] | 245 nM |  |
| CCCCCC(c1ccc(C(=O)NCCC(=O)O)cc1)n1cc2cc(-c3ccc(C(F)(F)F)cc3)ccc2n1 (centres unmarked) [compound 171] | 133 nM |  |
| CC(C)CC(c1ccc(C(=O)NCCC(=O)O)cc1)n1ncc2cc(-c3cc4cc(F)ccc4s3)ccc21 (centres unmarked) [compound 172] | 260 nM |  |
| CCOc1c(-c2ccc(C)cc2C)ccc2nn(C(CC(C)C)c3ccc(C(=O)NCCC(=O)O)nc3)cc12 (centres unmarked) [compound 182] | 70 nM |  |
| Cc1cc(Cl)ccc1-c1ccc2c(cnn2C(CC2CCCCC2)c2ccc(C(=O)NCCC(=O)O)nc2)c1 (centres unmarked) [compound 183] | 350 nM |  |
| O=C(O)CCNC(=O)c1ccc(C(CC2CCCC2)n2cc3cc(-c4ccc(C(F)(F)F)cc4)ccc3n2)cn1 (centres unmarked) [compound 188] | 165 nM |  |
| CCCCCCC(c1ccc(C(=O)NCCC(=O)O)nc1)n1ncc2cc(-c3ccc(C(F)(F)F)cc3)ccc21 (centres unmarked) [compound 193] | 155 nM |  |
| Cc1cc(Cl)ccc1-c1ccc2c(cnn2C(CC2CCCCC2)c2ccc(C(=O)NCCC(=O)O)cc2)c1 (centres unmarked) [compound 194] | 210 nM |  |
| Cc1cc(Cl)ccc1-c1ccc2nn(C(CC(C)(C)C)c3ccc(C(=O)NCCC(=O)O)cc3)cc2c1 (centres unmarked) [compound 195] | 42 nM |  |
| O=C(O)CCNC(=O)c1ccc(C(CC2CCCC2)n2ncc3cc(-c4ccc(C(F)(F)F)cc4)ccc32)cn1 (centres unmarked) [compound 199] | 310 nM |  |
| O=C(O)CCNC(=O)c1ccc(C(CCc2ccc(Cl)cc2)n2cc3cc(-c4ccc(C(F)(F)F)cc4)ccc3n2)cc1 (centres unmarked) [compound 200] | 80 nM |  |
| CCCCCCC(c1ccc(C(=O)NCCC(=O)O)nc1)n1cc2cc(-c3ccc(Cl)cc3C)ccc2n1 (centres unmarked) [compound 203] | 75 nM |  |
| CCCCCCC(c1ccc(C(=O)NCCC(=O)O)cc1)n1cc2cc(-c3ccc(Cl)cc3C)ccc2n1 (centres unmarked) [compound 204] | 21 nM |  |
| O=C(O)CCNC(=O)c1ccc(C(CC2CCCC2)n2ncc3cc(-c4ccc(C(F)(F)F)cc4)ccc32)cc1 (centres unmarked) [compound 208] | 175 nM |  |
| Cc1cc(Cl)ccc1-c1ccc2c(cnn2C(CCC2CCCCC2)c2ccc(C(=O)NCCC(=O)O)nc2)c1 (centres unmarked) [compound 210] | 365 nM |  |
| O=C(O)CCNC(=O)c1ccc(C(CC2CCC2)n2cc3cc(-c4ccc(C(F)(F)F)cc4)ccc3n2)cc1 (centres unmarked) [compound 211] | 85 nM |  |

| SMILES | Ki (human GCGR) | other results |
| --- | --- | --- |
| CC(C)(C)CC(c1ccc(C(=O)NCCC(=O)O)nc1)n1cc2cc(-c3ccc(C(F)(F)F)cc3)ccc2n1 (centres unmarked) [compound 212] | 90 nM |  |
| CC(C)CC(c1ccc(C(=O)NCCC(=O)O)cc1)n1ncc2cc(-c3cccnc3)ccc21 (centres unmarked) [compound 219] | > 5200 nM |  |
| CC(C)CC(c1ccc(C(=O)NCCC(=O)O)cc1)n1ncc2cc(-c3ccsc3)ccc21 (centres unmarked) [compound 221] | 2900 nM |  |
| COc1ccc2cc(-c3ccc4c(cnn4C(CC(C)C)c4ccc(C(=O)NCCC(=O)O)cc4)c3)ccc2c1 (centres unmarked) [compound 222] | 800 nM |  |
| Cc1ccc2sc(-c3ccc4c(cnn4C(CC(C)C)c4ccc(C(=O)NCCC(=O)O)cc4)c3)cc2c1 (centres unmarked) [compound 230] | 280 nM |  |
| CC(C)(C)CC(c1ccc(C(=O)NCCC(=O)O)cc1)n1ncc2cc(-c3ccc(C(F)(F)F)cc3)ccc21 (centres unmarked) [compound 231] | 95 nM |  |
| O=C(O)CCNC(=O)c1ccc(C(CCCC(F)(F)F)n2ncc3cc(-c4ccc(C(F)(F)F)cc4)ccc32)cc1 (centres unmarked) [compound 234] | 275 nM |  |
| CC(C)CC(c1ccc(C(=O)NCCC(=O)O)nc1)n1cc2c(C(F)(F)F)c(-c3ccc(C(F)(F)F)cc3Cl)ccc2n1 (centres unmarked) [compound 235] | > 5200 nM |  |
| CC(C)(C)CC(c1ccc(C(=O)NCCC(=O)O)nc1)n1ncc2cc(-c3ccc(C(F)(F)F)cc3)ccc21 (centres unmarked) [compound 237] | 160 nM |  |
| Cc1cc(Cl)ccc1-c1ccc2c(cnn2C(CC(C)(C)C)c2ccc(C(=O)NCCC(=O)O)nc2)c1 (centres unmarked) [compound 238] | 210 nM |  |
| O=C(O)CCNC(=O)c1ccc(C(CC2CCCCC2)n2cc3cc(-c4ccc(C(F)(F)F)cc4)ccc3n2)cn1 (centres unmarked) [compound 240] | 200 nM |  |
| CCCCCCC(c1ccc(C(=O)NCCC(=O)O)nc1)n1ncc2cc(-c3ccc(Cl)cc3C)ccc21 (centres unmarked) [compound 244] | 200 nM |  |
| CCCCCCC(c1ccc(C(=O)NCCC(=O)O)cc1)n1ncc2cc(-c3ccc(Cl)cc3C)ccc21 (centres unmarked) [compound 245] | 210 nM |  |
| Cc1cc(Cl)ccc1-c1ccc2nn(C(CCC3CCCCC3)c3ccc(C(=O)NCCC(=O)O)cc3)cc2c1 (centres unmarked) [compound 247] | 37 nM |  |
| Cc1cc(Cl)ccc1-c1ccc2nn(C(CC3CCCCC3)c3ccc(C(=O)NCCC(=O)O)nc3)cc2c1 (centres unmarked) [compound 249] | 42 nM |  |
| O=C(O)CCNC(=O)c1ccc(C(CC2CCC2)n2ncc3cc(-c4ccc(C(F)(F)F)cc4)ccc32)cn1 (centres unmarked) [compound 251] | 650 nM |  |
| O=C(O)CCNC(=O)c1ccc(C(CC2CCCC2)n2cc3cc(-c4ccc(C(F)(F)F)cc4)ccc3n2)cc1 (centres unmarked) [compound 254] | 90 nM |  |
| O=C(O)CCNC(=O)c1ccc(C(CC2CCCCC2)n2ncc3cc(-c4ccc(C(F)(F)F)cc4)ccc32)cn1 (centres unmarked) [compound 255] | 550 nM |  |
| Cc1cc(Cl)ccc1-c1ccc2nn(C(CC(C)(C)C)c3ccc(C(=O)NCCC(=O)O)nc3)cc2c1 (centres unmarked) [compound 257] | 26 nM |  |
